From patent publication US11590116B2 (THERAVANCE BIOPHARMA R&D IP, LLC, priority 2019, dated 2023) come the findings set out here.

Test [1] deals with T1, recombinant human ALK5 (TGF-βR1) protein (Homo sapiens, UniProt P36897).
T1 construct: purchased Life Technologies PR9075A
T1 sequence (P36897 34-503): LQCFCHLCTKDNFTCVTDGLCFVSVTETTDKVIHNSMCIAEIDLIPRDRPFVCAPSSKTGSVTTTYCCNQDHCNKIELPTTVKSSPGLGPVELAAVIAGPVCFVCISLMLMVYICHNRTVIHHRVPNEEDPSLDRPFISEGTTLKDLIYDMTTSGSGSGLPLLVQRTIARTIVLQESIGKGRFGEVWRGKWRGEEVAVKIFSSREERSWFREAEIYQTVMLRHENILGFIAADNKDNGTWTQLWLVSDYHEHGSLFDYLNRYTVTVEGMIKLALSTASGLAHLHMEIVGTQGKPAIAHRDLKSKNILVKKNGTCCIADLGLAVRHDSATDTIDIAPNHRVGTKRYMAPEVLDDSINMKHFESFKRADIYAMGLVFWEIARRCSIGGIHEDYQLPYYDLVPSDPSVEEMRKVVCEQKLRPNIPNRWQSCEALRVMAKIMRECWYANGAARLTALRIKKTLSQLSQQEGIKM
As to the kind of experiment: Biochemical ALK5 (TGF-βR1) assay to measure pKi (LANCE Ultra ULight kinase assay). The settings on record: apparent pKi from pIC50 by Cheng-Prusoff, read-out: ALK5 pKi (converted). The gist of the method: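 Dose range 10 μM–25 pM; enzyme + compound 60 min RT; ATP added (5× stock 125 μM, 2 mM DTT); 60 min 37 °C; stop with EDTA + Eu anti-phospho-Topo IIα Thr1342 Ab; TR-FRET ex 320/340, em 665 nm. 4-param pIC50 → pKi (Cheng-Prusoff).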
(In general: Time-resolved FRET reads energy transfer from a long-lived donor to a nearby acceptor.)

Test [2] relates to TGF-β-stimulated SMAD3 phosphorylation in BEAS-2B cells. As to the kind of experiment: Cellular ALK5 potency assay, inhibition of TGF-β stimulated pSMAD3 formation in BEAS-2B cells. The format is cell-based. The conditions noted are these: Homo sapiens; inhibition of TGF-β stimulated pSMAD3 formation, BEAS-2B cells; read-out: BEAS2B pIC50 (converted). The gist of the method: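 Potency is reported as pIC50, derived from concentration-dependent reduction of pSMAD3 AlphaLISA signal against TGF-β-stimulated cells without compound. BEAS-2B cells received compound for 1 h before a 30-min stimulation with 10 ng/mL TGF-β.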

Turning to `Cc1cccc(-c2[nH]ncc2-c2ccc3ncc(C(=O)OCCN4CCCCC4)cc3c2)n1` [Compound 1173, 2-(1-piperidyl)ethyl 6-[5-(6-methyl-2-pyridyl)-1H-pyrazol-4-yl]quinoline-3-carboxylate], the Ki in test [1] was 0.0398 to 0.316 nM. For the same molecule, in test [2], the IC50 is 25.1 to 158 nM.
The corresponding values for `Cc1nc(-c2n[nH]cc2-c2ccc3ncc(-c4cnc5n4CCN5)cc3n2)ccc1F` [Compound 332, 7-(6,7-dihydro-5H-imidazo[1,2-a]imidazol-3-yl)-2-[3-(5-fluoro-6-methyl-2-pyridyl)-1H-pyrazol-4-yl]-1,5-naphthyridine] are less than 0.0316 nM and 25.1 to 158 nM.
For `Cc1nc(-c2n[nH]cc2-c2ccc3ncc(-c4cnn(C[C@H]5CC[C@H](N)CC5)c4)cc3n2)ccc1F` [Compound 551, 4-[[4-[6-[3-(5-fluoro-6-methyl-2-pyridyl)-1H-pyrazol-4-yl]-1,5-naphthyridin-3-yl]pyrazol-1-yl]methyl]cyclohexanamine], in test [1], the Ki is less than 0.0316 nM. Besides, in test [2], the IC50 was 25.1 to 158 nM.
The like results for `COc1nc(-c2ccc3ncc(C4=CCC5(CCNCC5)CC4)cc3c2)c(-c2cccc(C)n2)[nH]1` [Compound 1251, 9-[6-[2-methoxy-5-(6-methyl-2-pyridyl)-1H-imidazol-4-yl]-3-quinolyl]-3-azaspiro[5.5]undec-9-ene] were, in that order, less than 0.0316 nM and 25.1 to 158 nM.
With `Cc1cccc(-c2[nH]cnc2-c2ccc3ncc(C(=O)OC4CCNCC4)cc3c2)n1` [Compound 740, piperidin-4-yl 6-(5-(6-methylpyridin-2-yl)-1H-imidazol-4-yl)quinoline-3-carboxylate], the Ki in test [1] is 0.0398 to 0.316 nM. For the same molecule, the IC50 in test [2] was 25.1 to 158 nM.
The corresponding values for `CNCCn1cc(-c2cnc3ccc(-c4nc[nH]c4-c4ccc(F)c(C)n4)nc3c2)cn1` [Compound 559, 2-[4-[6-[5-(5-fluoro-6-methyl-2-pyridyl)-1H-imidazol-4-yl]-1,5-naphthyridin-3-yl]pyrazol-1-yl]-N-methyl-ethanamine] are 0.0398 to 0.316 nM and 25.1 to 158 nM.
The corresponding values for `Cc1cccc(-c2[nH]cnc2-c2ccc3ncc(-c4nc5c(s4)CCNC5)cc3c2)n1` [Compound 727, 2-(6-(5-(6-methylpyridin-2-yl)-1H-imidazol-4-yl)quinolin-3-yl)-4,5,6,7-tetrahydrothiazolo[4,5-c]pyridine] are less than 0.0316 nM and less than 20 nM.
The corresponding values for `Cc1cccc(-c2n[nH]cc2-c2ccc3ncc(NCCN4CCN(C(C)C)CC4)cc3c2)n1` [Compound 428, N-[2-(4-isopropylpiperazin-1-yl)ethyl]-6-[3-(6-methyl-2-pyridyl)-1H-pyrazol-4-yl]quinolin-3-amine] are 0.0398 to 0.316 nM and 25.1 to 158 nM.
In the case of `Cc1cccc(-c2[nH]cnc2-c2ccc3ncc(C(=O)O[C@@H]4CCCC[C@H]4N)cc3c2)n1` [Compound 880, (1R,2R)-2-aminocyclohexyl 6-(5-(6-methylpyridin-2-yl)-1H-imidazol-4-yl)quinoline-3-carboxylate], in test [1], the Ki was 0.398 to 3.16 nM. For the same molecule, the IC50 in test [2] is 25.1 to 158 nM.
For the molecule `Cc1cccc(-c2n[nH]cc2-c2ccc3ncc(N4CCC(N5CCN(C)CC5)CC4)cc3c2)n1` [Compound 82, 3-(4-(4-Methylpiperazin-1-yl)piperidin-1-yl)-6-(3-(6-methylpyridin-2-yl)-1H-pyrazol-4-yl)quinoline], in test [1], the Ki is 0.0398 to 0.316 nM. Also, the IC50 in test [2] was 25.1 to 158 nM.
Take `Cc1cccc(-c2[nH]cnc2-c2ccc3nccc(C(=O)O)c3c2)n1` [Compound 1097, 6-[5-(6-methyl-2-pyridyl)-1H-imidazol-4-yl]quinoline-4-carboxylic acid]: the Ki in test [1] was 0.398 to 3.16 nM. The IC50 in test [2] is 200 to 1260 nM.
The like results for `Cc1cccc(-c2[nH]ncc2-c2ccc3ncc(C(=O)N4CC(N5CCOCC5)C4)cc3n2)n1` [Compound 352, [6-[5-(6-methyl-2-pyridyl)-1H-pyrazol-4-yl]-1,5-naphthyridin-3-yl]-(3-morpholinoazetidin-1-yl)methanone] were, in that order, 3.98 to 31.6 nM and 200 to 1260 nM.
`Cc1cccc(-c2[nH]cnc2-c2ccc3ncc(C(=O)O[C@@H]4CC[C@@H](N)C4)cc3c2)n1` (racemic) [Compound 766, [rac-(1R,3R)-3-aminocyclopentyl] 6-[5-(6-methyl-2-pyridyl)-1H-imidazol-4-yl]quinoline-3-carboxylate]: the Ki in test [1] was 0.0398 to 0.316 nM. The IC50 in test [2] was 25.1 to 158 nM.
With `Cc1cccc(-c2n[nH]cc2-c2ccc3ncc(N4CCNC(C(N)=O)C4)cc3n2)n1` (racemic) [Compound 497, rac-(2S)-4-[6-[3-(6-methyl-2-pyridyl)-1H-pyrazol-4-yl]-1,5-naphthyridin-3-yl]piperazine-2-carboxamide], in test [1], the Ki was 0.0398 to 0.316 nM. Besides, in test [2], the IC50 was 200 to 1260 nM.
The corresponding values for `Cc1cccc(-c2[nH]cnc2-c2ccc3ncc(-c4cccc(C(=O)OCC5CNC5)n4)cc3c2)n1` [Compound 1044, azetidin-3-ylmethyl 6-[6-[5-(6-methyl-2-pyridyl)-1H-imidazol-4-yl]-3-quinolyl]pyridine-2-carboxylate] are less than 0.0316 nM and 200 to 1260 nM.
As for `Cc1cccc(-c2n[nH]cc2-c2ccc3nccc(NCCN4CCOCC4)c3n2)n1` [Compound 823, 6-[3-(6-methyl-2-pyridyl)-1H-pyrazol-4-yl]-N-(2-morpholinoethyl)-1,5-naphthyridin-4-amine], the Ki in test [1] is 0.398 to 3.16 nM. Besides, the IC50 in test [2] is 200 to 1260 nM.
Take `Cc1cccc(-c2n[nH]cc2-c2ccc3ncc(CO)cc3n2)n1` [Compound 126, [6-[3-(6-methyl-2-pyridyl)-1H-pyrazol-4-yl]-1,5-naphthyridin-3-yl]methanol]: the Ki in test [1] was 0.0398 to 0.316 nM. Also, the IC50 in test [2] is 25.1 to 158 nM.
The like results for `Cc1cccc(-c2[nH]cnc2-c2ccc3ncc(-c4csc(C(=O)OC[C@@H]5CCCCN5)c4)cc3c2)n1` [Compound 1213, [(2S)-2-piperidyl]methyl 4-[6-[5-(6-methyl-2-pyridyl)-1H-imidazol-4-yl]-3-quinolyl]thiophene-2-carboxylate] were, in that order, less than 0.0316 nM and 25.1 to 158 nM.
The corresponding values for `Cc1cccc(-c2[nH]cnc2-c2ccc3ncc(-c4ccc(C(=O)OC5CNC5)nc4)cc3c2)n1` [Compound 616, azetidin-3-yl 5-[6-[5-(6-methyl-2-pyridyl)-1H-imidazol-4-yl]-3-quinolyl]pyridine-2-carboxylate] are 0.0398 to 0.316 nM and 25.1 to 158 nM.
As for `Cc1cccc(-c2[nH]cnc2-c2ccc3ncc(-c4ncc(C(=O)OC5CCNCC5)cn4)cc3c2)n1` [Compound 1101, 4-piperidyl 2-[6-[5-(6-methyl-2-pyridyl)-1H-imidazol-4-yl]-3-quinolyl]pyrimidine-5-carboxylate], in test [1], the Ki is 0.0398 to 0.316 nM. For the same molecule, the IC50 in test [2] was 25.1 to 158 nM.
`Cc1cccc(-c2n[nH]cc2-c2ccc3ncc(-c4ncc5n4CCN5)cc3n2)n1` [Compound 641, 7-(2,3-dihydro-1H-imidazo[1,5-a]imidazol-5-yl)-2-[3-(6-methyl-2-pyridyl)-1H-pyrazol-4-yl]-1,5-naphthyridine]: the Ki in test [1] is 0.0398 to 0.316 nM. Besides, the IC50 in test [2] was 25.1 to 158 nM.
The like results for `Cc1cccc(-c2[nH]cnc2-c2ccc3ncc(-c4csc(C(=O)O[C@@H]5CCN(C)C5)c4)cc3c2)n1` [Compound 750, [(3R)-1-methylpyrrolidin-3-yl] 4-[6-[5-(6-methyl-2-pyridyl)-1H-imidazol-4-yl]-3-quinolyl]thiophene-2-carboxylate] were, in that order, 0.0398 to 0.316 nM and less than 20 nM.
For `Cc1cccc(-c2nc3ccccn3c2-c2ccc3ncc(-c4cnn5c4CNCC5)cc3n2)n1` [Compound 587, 2-(2-(6-methylpyridin-2-yl)imidazo[1,2-a]pyridin-3-yl)-7-(4,5,6,7-tetrahydropyrazolo[1,5-a]pyrazin-3-yl)-1,5-naphthyridine], in test [1], the Ki was 0.0398 to 0.316 nM. Further, the IC50 in test [2] is 25.1 to 158 nM.
The corresponding values for `Cc1cccc(-c2[nH]cnc2-c2ccc3ncc(Nc4cnn(CCC5CCNCC5)c4)cc3c2)n1` [Compound 667, 6-[5-(6-methyl-2-pyridyl)-1H-imidazol-4-yl]-N-[1-[2-(4-piperidyl)ethyl]pyrazol-4-yl]quinolin-3-amine] are 0.0398 to 0.316 nM and 200 to 1260 nM.
The corresponding values for `Cc1cccc(-c2[nH]cnc2-c2ccc3ncc(-c4csc(C(=O)OCCN5C[C@@H](C)N[C@@H](C)C5)c4)cc3c2)n1` [Compound 1222, 2-[(3S,5R)-3,5-dimethylpiperazin-1-yl]ethyl 4-[6-[5-(6-methyl-2-pyridyl)-1H-imidazol-4-yl]-3-quinolyl]thiophene-2-carboxylate] are 0.0398 to 0.316 nM and 25.1 to 158 nM.
